Measurements as given in patent publication US5998376A, “Substance P treatment for immunostimulation” (priority 1998, dated 1999).

Experiments:
[1] = tested on: melanoma B16 cancer cells; experiment: B16 melanoma massive challenge, survival; format: in vivo, mice; conditions: tumor-challenged mammals, aerosol therapy
Text: The mice were infected with 1×10^5 […] melanoma B16 cancer cells by tail vein injection.

[2] = tested on: melanoma B16 cancer cells; experiment: B16 melanoma tail vein injection, tumor colonies in both lungs; format: in vivo, mice; conditions: for mean number of tumor colonies observed in both lungs: 1×10^4 B16 cells/mouse, 4 weeks post-injection
Text: The mice were infected with syngeneic […] melanoma B16 cancer cells by tail vein injection. The dose was 1×10^4 B16 tumor cells/mouse. […] The second group of mice was given their substance P aerosol therapy starting one week after the injection of the B16 cells. The aerosol therapy lasted for one week. Both groups of mice and their corresponding controls (injection with B16 cells and no substance P therapy) were killed at 4 weeks post-injection with B16 cells. The data is presented as the mean number of tumor colonies observed in both lungs.

splenic T cells = experiment: Mitogenesis of spleen T cells (ConA, 3H-thymidine) from LP-BM5-infected mice given SP aerosol; format: in vivo, C57BL6 mice
Experimental: C57BL6 mice, average weight of 25-30 grams, were infected with the LP-BM5 murine leukemia retrovirus to simulate the human AIDS virus. […] The mice were divided into two groups; LP-BM5 virus only and LP-BM5 virus +substance P aerosol therapy at 1 μM concentration. The mice were killed at 4 and 8 weeks post-inoculation.
The proliferation of splenic B and T cells induced by mitogens was determined by incorporation of radioactive thymidine. Splenocytes in 0.1 ml of cell culture medium (1×10^7 cells/ml) were cultured in 96-well flat-bottom cultured plates with ConA and lipopolysaccharide, 5 micrograms/ml). […] After 4 hours for radioactive thymidine uptake, the cells were harvested by a cell sample harvester. Radioactivity was determined by a liquid scintillation counter (Tri-Carb, 2200CA). The T and B cell mitogenesis values were recorded as counts per min in 1×10^7 cells/ml.

[3] = tested on: immune system organs (spleen, lymph nodes and thymus); experiment: Organ Weight and Total Cell Recovery, JP-8 exposed mice; format: in vivo, C57B16 mice; parameters: Spleen Weight / Thymus Weight: unit not given here
Experimental: (§1) At 24 hours after the last exposure, the animals were sacrificed and the effects of exposure on the immune system examined. Immune organs (spleen, thymus, blood, lymph nodes and bone marrow) were recovered and analyzed for effects on organ weight, total cell numbers, immune cell populations (by differentials), and lymphocyte subpopulations (by flow cytometry). Assays were also performed to examine the effects of exposure on immune function. […] Similar effects on immune cell subpopulations were also observed in lymph nodes. In the thymus it appeared that the immature CD4^+ CD8^+ cells were differentially lost due to exposure. […] However, these effects are prevented or ameliorated by treatment of the animals with Substance P.
Organ Weight and Total Cell Recovery: For each of the immune system organs (spleen, lymph nodes and thymus) the wet weight is determined after removal using a microbalance. After processing of the organs into single cell suspensions the cell numbers and viabilities are determined using trypan blue staining. Histochemical differentials are performed at this time. Cell numbers and viabilities are again determined after centrifugation of the cell suspensions through density gradients to obtain mononuclear cells.

immune system = experiment: Immune parameters and immune function (blastogenesis, mixed lymphocyte response) after JP-8 exposure; format: in vivo, C57B16 mice
Experimental: as §1
Blastogenesis and Mixed lymphocyte response (MLR) assays: Blastogenesis and MLR assays are set up in 96 well microtitre plated in replicates of 6. Responder cells are plated at 1×10^5 cells/well and are stimulated as indicated (with either media, alloantigen, growth factors or mitogens). After 72 hours the plates are pulsed with 1 uCi/well of ^3 H-thymidine for 18 hours. The wells are then harvested using a Ph.D. cell harvester, the filters dried and scintillation counting performed. The data is presented as the stimulated dpm and is represented as the stimulation index (SI) (Harris et al., Proc. Natl. Acad Sci. USA 89:10006 (1992)).

[4] = tested on: spleen, thymus and bone marrow cells; experiment: Substance P aerosol therapy in JP-8 jet fuel exposed mice, cell numbers (FIGS. 1-3); format: in vivo, C57BL6 mice
Text: Since mice are nose-breathers, they were exposed to the aerosol/vapor mixture via nose-only presentation while they were held in individual loading tubes. The tubes were nose-fitted to receiving adaptors that originated from the common anodized aluminum exposure chamber (volume 0.3 m^3, IN-TOX, Albuquerque, N.Mex.). Noses were positioned in the exposure ports to minimize systemic absorption that might occur during total body exposure or through the process of self-grooming after exposure. The mice were rotated on a daily basis through the 24-adaptor positions of the exposure chamber. This was done to minimize proximity to the jet fuel source as a variable in exposure concentration or composition. Passive entrainment of the jet fuel aerosol/vapor mix and room air through the IN-TOX chamber was conducted by vacuum (15 liters/min). The vacuum was applied to the exposure chamber on the side opposite the fuel source. Animal exposure ports not in use were sealed during the exposure period. Longitudinal controls were sham-exposed in a manner identical to those receiving jet fuel, except that only room air was introduced into the exposure chamber. The exposure chamber was thoroughly cleaned prior to the longitudinal control group's exposure.
The substance P aerosol therapy was performed at the completion of the JP-8 jet fuel exposure. The nebulizer was modified with clean hoses and a new sonication crucible. […] The substance P aerosol therapy was conducted for the same seven day period over a total time period of nine days as the JP-8 jet fuel exposure regimen.

[5] = LP-BM5 virus + SP aerosol 1 μM, 4 weeks after infection, mean (SEM)
[6] = JP-8 dose 0 + SP or antagonist aerosol
[7] = JP-8 dose 1000 + SP or antagonist aerosol
[8] = JP-8 dose 1000 + nSP (1 nanomolar substance P)
[9] = dose printed 100 + nSP (1 nanomolar substance P)
[10] = JP-8 exposed mice, one micromolar aerosol 15 minutes

## Substance P [SP]
[1]
  survival time: enhance survival time
[2]; 1 μM SP aerosol 15 min/day 7 days starting immediately after injection
  mean number of tumor colonies observed in both lungs: 39
[2]; 1 μM SP aerosol for one week starting one week after injection
  mean number of tumor colonies observed in both lungs: 1
[2]; tumor-challenged mammals, aerosol therapy
  rate of tumor colonization: reduce the rate of tumor colonization
Splenic T cells; LP-BM5 virus + SP aerosol 1 μM 3 days/week, 4 weeks after infection, mean (SEM)
  Spleen T Cell Mitogenesis, 24 Hours in Culture: 2963 (56) counts per min
Splenic T cells; [5]
  Spleen T Cell Mitogenesis, 48 Hours in Culture: 2769 (23) counts per min
  Spleen T Cell Mitogenesis, 72 hours in culture: 4362 (69) counts per min
Splenic T cells; LP-BM5 virus + SP aerosol 1 μM, 8 weeks post-infection
  Spleen T Cell Mitogenesis, 72 hours in culture: 3127 (77) counts per min
[3]; [6]
  BM Cell Number: 9
  Spleen Cell Number: 30
  Spleen Weight: 0.10
  Thymus Cell Number: 18
  Thymus Weight: 0.04
[3]; JP-8 dose 250 + SP aerosol
  BM Cell Number: 23
  Spleen Cell Number: 40
  Spleen Weight: 0.16
  Thymus Cell Number: 20
  Thymus Weight: 0.06
[3]; [7]
  BM Cell Number: 21
  LN Cell Number: 5.0
  Spleen Cell Number: 72
  Spleen Weight: 0.14
  Thymus Cell Number: 78
  Thymus Weight: 0.11
[3]; [8]
  BM Cell Number: 31
  Thymus Cell Number: 78
  Thymus Weight: 0.04
[3]; JP-8 dose 2500 + SP aerosol
  BM Cell Number: 19
  LN Cell Number: 5.0
  Spleen Cell Number: 87
  Spleen Weight: 0.10
  Thymus Cell Number: 96
  Thymus Weight: 0.08
[3]; [9]
  Spleen Cell Number: 58
  Spleen Weight: 0.11
Immune system; Substance P aerosol therapy
  deleterious effects of chronic JP-8 jet fuel exposure to the immune system: reversed and/or prevented
Immune system; Substance P at both 1 uM and 1 nM doses
  majority of the effects of JP-8 jet fuel exposure on the immune system: could be significantly reversed
Immune system; mice exposed to 500, 1000 or 2500 mg aerosolized JP-8, 7 days 1 hour/day, treated with Substance P
  effects of JP-8 exposure on all measured immune parameters: invariably reversed the effects on all measured parameters of JP-8 exposure to almost normal levels
[4]; JP-8 500 or 2500 mg/m^3, 1 hour/day 7 days, one micromolar aerosol 15 minutes after each exposure
  effect on spleen cell number (FIG. 1): totally reverse the effect of the jet fuel on the spleen cell number
[4]; [10]
  effect on bone marrow cells (FIG. 3): augments the stimulation substantially
  effect on thymus cell number (FIG. 2): substantially reverses the effect on cell number
